Reference: the METLIN SMRT retention time set (Domingo-Almenara et al. 2019)

Assay: gradient 5% acetonitrile 3 min, to 50% in 2 min, to 85% in 15 min, held 3 min, 100 µL/min
Settings: column: Zorbax Extend-C18 2.1 x 50 mm; eluents: water / acetonitrile, 0.1% formic acid
Procedure, shortened: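 Retention time was recorded from adduct peaks, which were picked computationally and each inspected manually. Pure standards ran in mixtures of ~100 molecules on HPLC coupled to a quadrupole time-of-flight mass spectrometer, in positive and negative ionization mode, through a Zorbax Extend-C18 column (2.1 × 50 mm, 1.8 μm) at 100 μL/min. Eluents were water and acetonitrile, each with 0.1% formic acid.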

Row | RP-LC retention time | SMILES
1 | 706 s | Cc1noc(C2CN(C(=O)NCc3cccc(F)c3)CC23CCOCC3)n1 (configuration not stated)
2 | 787 s | Cc1ccc(-n2nc(N3CCN(C(=O)Nc4ccccc4C)CC3)ccc2=O)cc1
3 | 550 s | CCN1CCN(C(=O)c2nc(N(CC)CC)c3c(C)cc(C)nc3n2)CC1
4 | 860 s | COc1cc(NC(=O)c2cn(-c3cc(N4CCCC4)ncn3)cn2)cc(OC)c1
5 | 546 s | NC(=O)c1cc(=O)[nH]c2ccccc12
6 | 877 s | COc1ccc(CNC(=O)C2CCN(S(C)(=O)=O)c3cc(Cl)ccc3O2)cc1 (configuration not stated)
7 | 714 s | Cc1ccn2c(NC(=O)COc3ccc(Cl)cc3)c(-c3ccccc3)nc2c1
8 | 911 s | O=C(Cn1c(=O)c2cccn2c2ccc(F)cc21)N1CCc2ccccc2C1
9 | 601 s | O=C([C@@H]1C[C@H](F)CN1C(=O)Cc1ccc(F)cc1)N1CCCCC1
10 | 945 s | CC(C)(C)C(=O)Nc1ccc(SCc2nnc(-c3ccc4c(c3)OCO4)o2)cc1
11 | 1010 s | CC(C)CCn1nc2c(S(=O)(=O)N3CCc4ccccc4C3)cccn2c1=O
12 | 732 s | Cn1c(N2CCC(C(=O)Nc3ccc(Cl)cc3)CC2)cc(=O)n(C)c1=O
13 | 686 s | c1ccc(-c2cc(N3CCOCC3)n[nH]2)cc1
14 | 576 s | CCCNC(=O)N1C[C@@H]2CCCN3CCC[C@@H]([C@H]23)[C@H]1CCCC(=O)NCC1CC1
15 | 675 s | COc1ccc(-c2cc(C(=O)NCC(c3cccs3)N(C)C)no2)cc1 (configuration not stated)
16 | 882 s | Cc1cc(C)cc(S(=O)(=O)N2CCC(c3nc(C(=O)N(C)C)c(C)o3)CC2)c1
17 | 970 s | CN(C)c1cccc(C(=O)Nc2cc(-c3cccs3)no2)c1
18 | 955 s | CN(C)S(=O)(=O)c1ccc2c(c1)N(CC(=O)NCCCc1ccccc1)C(=O)C1CCCCN21 (configuration not stated)

Row | RP-LC retention time | SMILES
19 | 669 s | Cc1ccnc(N2CCC(C(=O)NC3CCCCC3)CC2)n1
20 | 733 s | O=C1NCCCCCCN(C(=O)c2ccsc2)[C@H]2CCC[C@@H]12
21 | 792 s | O=C(Nc1ccccc1)C1CC(=O)N(c2ccc3c(c2)CCN3C(=O)C2CCC2)C1 (configuration not stated)
22 | 837 s | O=C(Nc1ccccc1)N1CCC(OCc2ccccc2)C1 (configuration not stated)
23 | 676 s | Cc1[nH]c(C)c(S(=O)(=O)N2CCC(C(=O)Nc3ccc(F)cc3F)CC2)c1C(=O)N1CCCC1
24 | 801 s | COc1ccccc1NC(=O)C1CCCN1S(=O)(=O)c1cc2c(cc1C)NC(=O)C(C)O2 (configuration not stated)
25 | 710 s | COc1ccc(-c2nnc3sc(-c4ccncc4)nn23)cc1OC
26 | 915 s | O=C(NCc1ccc(-c2noc(CCc3ccccc3)n2)s1)C1CC1
27 | 685 s | Cn1cnc2ccc(-c3noc(-c4cccs4)n3)cc21
28 | 688 s | NC(=O)Cc1csc(NC(=O)c2csc(Nc3ccc(OC(F)F)cc3)n2)n1
29 | 721 s | COc1ccccc1CNS(=O)(=O)c1ccc2c(c1)CCCC(=O)N2
30 | 846 s | C=CCN1C(=O)CC(Nc2ccc(CC)cc2)C1=O (configuration not stated)
31 | 710 s | O=C(NCc1cccs1)C1CC(=O)N(c2ccc3c(c2)CCN3C(=O)C2CC2)C1 (configuration not stated)
32 | 664 s | CCN(CC)CCNc1ncnc2onc(-c3ccc(Cl)cc3)c12
33 | 804 s | COc1cc(NC(=O)Cn2c(=O)n(-c3ccccc3)c(=O)c3c2cc(C)n3C)cc(OC)c1
34 | 967 s | O=C(Nc1ccc(Br)cc1)C1CCCN1S(=O)(=O)c1ccc(F)cc1 (configuration not stated)
35 | 680 s | COc1ccc(C(=O)Nc2c(-c3ccccc3)nc3cc(C)ccn23)c(OC)c1
36 | 654 s | CCOC(=O)c1c(C)[nH]c(C(=O)N2CCC(CC(=O)NC3CC3)CC2)c1C

Row | SMILES | RP-LC retention time
37 | O=C(CN1CC=C(c2cnn(-c3ccccc3)c2)CC1)N1CCN(c2ccccn2)CC1 | 567 s
